pIC50: −log10 of the molar value. “Also recorded” adds a separate entry of the source.
Key:
CD47 [1] = test: Flow cytometry, anti-human CD47 CC2C6 antibody binding on SK-OV-3 cell surface; type: cell-based
Experimental: (§1) Binding between CD47 and SIRPα was studied by measuring the level of CD47 binding using any suitable method. Flow cytometric analysis is useful to quantify the level of binding of CD47 to antibody CC2C6, which is then subjected to an immune-staining procedure using fluorochrome-conjugated secondary antibody followed by analysis of the immune-staining signal with a flow cytometry instrument to obtain the level of the CD47-CC2C6 binding. In another method, analysis of CD47 is performed using SIRPα-Fc formed from SIRPα fused with human IgG1, which is then subjected to an immune-staining procedure using fluorochrome-conjugated secondary antibody against human IgG1, followed by analysis of the immune-staining signal. SIRPα is expressed on the surface of a myeloid cell such as macrophage, monocyte, neutrophil, or dendritic cell. Alternatively, SIRPα is fused with human IgG1 to form a SIRPα-Fc recombinant protein. […] An anti-cancer agent (e.g., rituximab) can be used together with a compound of formula (I). Useful anti-cancer agents are described above including anti-PD-L1 antibodies, anti-CD20 antibodies, anti-HER2 antibodies, anti-EGFR antibodies, and anti-CD47 antibodies. Other suitable anti-cancer agents are chemotherapeutic agents such as doxorubicin, epirubicin, idarubicin, methotrexate, mitoxantrone, oxaliplatin, and cyclophosphamide.
SK-OV-3 cells were purchased from ATCC (Manassas, Va.). SK-OV-3 cells were maintained at 37° C. under 5% CO2 in McCoy's 5a medium (Gibco, ThermoFisher, Waltham, Mass.) with 10% fetal bovine serum (FBS) (Sigma-Aldrich, St Louis, Mo.), and 2 mM L-glutamine.
(§2) Antibody conjugates and extracellular domain of SIRPα used to analyze cell surface CD47 binding include anti-human CD47 CC2C6, 2D3, recombinant human SIRPα/CD172a Fc chimer protein, and anti-human IgG Fc. To determine inhibition of CD47 binding, cancer cells were treated with compounds of formula (I) at various concentrations for 4 days. Thereafter, the cells were washed with PBS containing 0.5% BSA (FACS buffer) followed by incubation with fluorochrome-labeled antibodies to human CD47 (i.e., CC2C6 and 2D3) at 1:50 dilution in FACS buffer for 30 minutes at 4° C. Compounds of formula (I) produced a dose-dependent inhibition of anti-CD47 CC2C6 antibody that recognized CD47 and SIRPα binding site on the tumor cell surface including B-cell lymphoma Raji cells, colon cancer cells DLD-1, and ovarian cancer SK-OV-3 cells (see FIGS. 1A, 1B, and 1C, respectively).

Mouse pk profiles = type: in vivo
[2] = test system: human B-cell lymphoma Raji xenograft tumor; test: Raji xenograft anti-tumor efficacy and survival study (3 weeks treatment); type: in vivo, NOD/SCID mice; settings: Compound 34 100 mg/kg p.o. QD*5, rituximab 10 mg/kg i.p. 2QW
Description: Human B-cell lymphoma Raji cells were used to evaluate the efficacy of Compound 34 and rituximab in treating cancer cells. Prior to injection into animals, the cancer cells were detected as free of Mycoplasma spp. NOD/SCID mice (BioLasco, Taiwan) were used for in vivo experiments due to their higher affinity of SIRPα to human CD47. The mice used in these studies were housed in Institutional Animal Care and Use Committees-approved facility at National Health Research Institutes in accordance with guidelines for the care and use of laboratory animals.
One million Raji cells in culture medium and matrigel (1:1, v/v) were injected subcutaneously into the left flank region of the mice (n=7 to 10 animals per group). Treatments were initiated after randomization with inclusion of tumors at approximately 100 mm^3. A dosing vehicle for Compound 34 was prepared using 10% DMA: 40% PEG400: 50% (1% CMC) (v/v/v) and was dosed orally (p.o.) at 100 mg/kg once a day, 5 days a week (Q.D.*5). Rituximab (Roche-Genentech, South San Francisco, Calif.) stock solution was diluted with PBS and dosed at 10 mg/kg twice a week (2QW) by intraperitoneal (i.p.) injection.
To evaluate anti-tumor efficacy and survival rates, mice were treated with vehicle control, 10 mg/kg rituximab (2QW, i.p.), 100 mg/kg Compound 34 (QD*5), or rituximab in combination with Compound 34. Treatment was discontinued at the end of 3 weeks. The mice were monitored for cancer growth and body weight once a week. Cancer growth was measured by volume with an electronic caliper. The volume was calculated as L×W^2/2, in which L is the length of the tumor and W is its width. Tumor size and animal body weight were measured once a week after cancer cell inoculation. Cancer response at the end of the study was calculated as tumor growth inhibition (TGI) using (1−T/C)*100, in which T is the mean tumor volume (mm^3) of the test group, and C is the mean tumor volume (mm^3) of the vehicle-treated group. […] For the survival study, treatment was discontinued at the end of 3 weeks. Thereafter, mice were followed up for tumor growth and body weight once a week. The mice were then sacrificed when tumor volume reached 2,000 mm^3 or body weight loss was greater than 10%. Kaplan-Meier plots were used as the study end point to calculate percentage of animals remaining in the study in term of the time. The median survival days for vehicle control and Compound 34 were 15.5 days and 18 days, respectively (FIG. 5E). Rituximab prolonged median survival days to 28 days after treatment discontinued (FIGS. 5C and 5E). Importantly, the combination of rituximab and Compound 34 further prolonged median survival days to 47 days (FIGS. 5D and 5E).

CD47 [3] = test: Flow cytometry, anti-human CD47 CC2C6 antibody binding on Raji cell surface; type: cell-based
Experimental: as §1
Human B-cell lymphoma Raji cells were purchased from BCRC, Taiwan. Raji cells were maintained at 37° C. under 5% CO2 in RPMI-1640 medium (Hyclone, Marlborough, Mass.) supplemented with 10% fetal bovine serum (FBS) (SAFC, Sigma-Aldrich, St. Louis, Mo.) containing 2 mM L-glutamine (Hyclone, Marlborough, Mass.), 10 mM HEPES (Hyclone, Marlborough, Mass.) and 1 mM sodium pyruvate (Hyclone, Marlborough, Mass.).
as §2

For O=C1NC[C@H](c2ccc(-c3csc(C(F)(F)F)c3)c(F)c2F)N1c1ccc2[nH]cnc2c1 [Compound 34], the pIC50 (CD47 [1]; Ovarian Cancer (SK-OV3 cells), 4 days treatment, read-out: IC50, inhibition of CC2C6 binding) was 6.72, the “inhibition of binding of anti-human CD47 antibody CC2C6 (in words)” value (CD47 [1]; SK-OV-3 cells) was “effectively inhibited” and the “AUC Plasma” value (Mouse pk profiles; IV (2 mg/kg)) was 8869 ng·h/g. For the same molecule, the “AUC Plasma” value (Mouse pk profiles; PO (30 mg/kg)) was 56451 ng·h/g, the clearance (Mouse pk profiles; plasma, IV (2 mg/kg)) was 4.6 mL/min/kg and the Cmax (Mouse pk profiles; plasma, PO (30 mg/kg)) was 1980 ng/mL. For the same molecule, the bioavailability (Mouse pk profiles; plasma, PO (30 mg/kg) vs IV (2 mg/kg)) was 43%, the half-life (Mouse pk profiles; plasma, PO (30 mg/kg), read-out: T1/2 (h) Plasma (converted)) was 9.3 h and the “tumor growth inhibition (TGI, % of control)” value ([2]; 3 weeks) was 41.4%. The median survival days ([2]; treatment discontinued at 3 weeks) was 18 days, the pIC50 (CD47 [3]; B-cell Lymphoma (Raji cells), 4 days treatment, read-out: IC50, inhibition of CC2C6 binding) was 5.96 and the “inhibition of binding of anti-human CD47 antibody CC2C6 (in words)” value (CD47 [3]; Raji cells) was “specifically affected anti-CD47 CC2C6 antibody; also recorded: effectively inhibited”.
